“And” between values parts separate entries of the source, which are not always exact repeats. Identical values can stand only once.
Columns and labels:
[1] = test system: patients with moderate to severe headaches of 24–72 hours duration; test: Expanded study: IV VPA vs DHE with metoclopramide IM, acute migraine headache (Example 2); type: in vivo, human; settings: for % Headache Relief: 10 patients per group; for Headache Severity / Nausea/vomiting / Phonophobia / Photophobia: individual patient; for Headache Severity: grade 0-3; for Nausea/vomiting / Phonophobia / Photophobia: presence
Method: This Example describes an expanded study and analysis of the effectiveness of intravenous VPA for the treatment of acute migraine headache of significant duration. Patient data from the pilot study described in Example 1 has been incorporated and further analyzed in addition to new patient data. • Design. […] Patients alternately received intravenous VPA 500 mgs over 15–30 minutes, or dihydroergotamine (“DHE”) 1 mg with metoclopramide 10 mgs intramuscularly (“IM”). Age ranged from 22 to 73 years. Patients rated severity of headache, presence or absence of nausea, photophobia, and phonophobia at 1, 2 and 4 hrs. Table V and Table VI. • Results. In the 10 patients receiving DHE and metoclopramide, 40% had headache relief at 1 hour, 50% at 2 hours, 60% at 4 hours. The percent with nausea at 0, 1, 2, and 4 hours was 60%, 10%, 20%, 30% respectively, photophobia at 0, 1, 2, and 4 hours 100%, 50%, 50%, 40% respectively, phonophobia at 0, 1, 2, and 4 hours 80%, 30%, 50%, 40% respectively. In the 10 patients receiving i.v. VPA, 60% had headache relief at 1 hour, 70% at 2 hours, 70% at 4 hours, the percent with nausea at 0, 1, 2, and 4 hours was 70%, 30% 30%, 20% respectively, photophobia at 0, 1, 2, and 4 hours was 100%, 40%, 40%, 30% respectively, and phonophobia at 0, 1, 2, and 4 hours was 90%, 40%, 40%, 30% respectively. Table VII. • Conclusions. The results of the present study indicate that intravenous VPA is at least as efficacious as DHE for abortive treatment of acute migraine. Accordingly, intravenous VPA offers a treatment option for migraine headache patients who have recently used a triptan or DHE without the risk of drug-drug interaction or cardiovascular complications.

acute migraine headache = settings: at 2 hours after administration; cited from earlier work

With CN1C[C@H](C(=O)N[C@]2(C)O[C@@]3(O)[C@@H]4CCCN4C(=O)[C@H](Cc4ccccc4)N3C2=O)C[C@@H]2c3cccc4[nH]cc(c34)C[C@H]21 [DHE, dihydroergotamine] the “% experiencing Nausea” value ([1]; 0-h (baseline)) was 60%, the “% experiencing Phonophobia” value ([1]; 0-h (baseline)) was 80% and the “% experiencing Photophobia” value ([1]; 0-h (baseline)) was 100%. For the same compound, the “% experiencing Nausea” value ([1]; 1-h) was 10%, the “% experiencing Phonophobia” value ([1]; 1-h) was 30% and the “% experiencing Photophobia” value ([1]; 1-h) was 50%. For the same compound, the “% experiencing Nausea” value ([1]; 2-h) was 20%, the “% experiencing Phonophobia” value ([1]; 2-h) was 50% and the “% experiencing Photophobia” value ([1]; 2-h) was 50%. For the same compound, the “% experiencing Nausea” value ([1]; 4-h) was 30%, the “% experiencing Phonophobia” value ([1]; 4-h) was 40% and the “% experiencing Photophobia” value ([1]; 4-h) was 40%. For the same compound, the “% Headache Relief” value ([1]; 1-h) was 40%, the “% Headache Relief” value ([1]; 2-h) was 50% and the “% Headache Relief” value ([1]; 4-h) was 60%. For the same compound, the “% Headache Relief” value ([1]; 24-h) was 90%, the “% experiencing Nausea” value ([1]; 24-h) was 10% and the “% experiencing Phonophobia” value ([1]; 24-h) was 10%. For the same compound, the “Headache Severity” value ([1]; 0-h (baseline), Depacon IV 500 mg or DHE 1 mg IM + Reglan 10 mg IM) was 2 (4×) and 3 (6×), the “Headache Severity” value ([1]; 1-h) was 3 (2×) and 0 (4×) and 2 (4×) and the “Headache Severity” value ([1]; 2-h) was 3 (2×) and 0 (4×) and 2 (3×) and 1. For the same compound, the “Headache Severity” value ([1]; 4-h) was 3 (2×) and 1 (2×) and 0 (4×) and 2 (2×), the “Headache Severity” value ([1]; 24-h) was 1 (6×) and 2 and 0 (3×) and the Nausea/vomiting ([1]; 0-h (baseline)) was 0. The Phonophobia ([1]; 0-h (baseline)) was 0, the Nausea/vomiting ([1]; 1-h) was 0 and the Phonophobia ([1]; 1-h) was 0. For the same compound, the Photophobia ([1]; 1-h) was 0, the Nausea/vomiting ([1]; 2-h) was 0 and the Phonophobia ([1]; 2-h) was 0. For the same compound, the Photophobia ([1]; 2-h) was 0, the Nausea/vomiting ([1]; 4-h) was 0 and the Phonophobia ([1]; 4-h) was 0. It also gave a Photophobia ([1]; 4-h) of 0, a Nausea/vomiting ([1]; 24-h) of 0 and a Phonophobia ([1]; 24-h) of 0. For the same compound, the “subjects with good relief of acute migraine headache” value (acute migraine headache) was 70–80%.

With CCCC(CCC)C(=O)[O-].[Na+] [Depacon, valproate sodium] the “% experiencing Nausea” value ([1]; 0-h (baseline)) was 70%, the “% experiencing Phonophobia” value ([1]; 0-h (baseline)) was 90% and the “% experiencing Photophobia” value ([1]; 0-h (baseline)) was 100%. For the same compound, the “% experiencing Nausea” value ([1]; 1-h) was 30%, the “% experiencing Phonophobia” value ([1]; 1-h) was 40% and the “% experiencing Photophobia” value ([1]; 1-h) was 40%. The “% experiencing Nausea” value ([1]; 2-h) was 30%, the “% experiencing Phonophobia” value ([1]; 2-h) was 40% and the “% experiencing Photophobia” value ([1]; 2-h) was 40%. The “% experiencing Nausea” value ([1]; 4-h) was 20%, the “% experiencing Phonophobia” value ([1]; 4-h) was 30% and the “% experiencing Photophobia” value ([1]; 4-h) was 30%. The “% Headache Relief” value ([1]; 1-h) was 60%, the “% Headache Relief” value ([1]; 2-h) was 70% and the “% Headache Relief” value ([1]; 4-h) was 70%. For the same compound, the “% Headache Relief” value ([1]; 24-h) was 50%, the “% experiencing Nausea” value ([1]; 24-h) was 40% and the “% experiencing Phonophobia” value ([1]; 24-h) was 60%. The “Headache Severity” value ([1]; 0-h (baseline), Depacon IV 500 mg or DHE 1 mg IM + Reglan 10 mg IM, sodium) was 3 (5×) and 2 (5×), the “Headache Severity” value ([1]; 1-h, sodium) was 1 (4×) and 0 (2×) and 2 (2×) and 3 (2×) and the “Headache Severity” value ([1]; 2-h, sodium) was 1 (6×) and 2 (3×) and 0. The “Headache Severity” value ([1]; 4-h, sodium) was 0 (3×) and 1 (4×) and 2 (2×) and 3, the “Headache Severity” value ([1]; 24-h, sodium) was 1 (3×) and 2 (4×) and 3 and 0 (2×) and the Nausea/vomiting ([1]; 0-h (baseline), sodium) was 0. It also gave a Phonophobia ([1]; 0-h (baseline), sodium) of 0, a Nausea/vomiting ([1]; 1-h, sodium) of 0 and a Phonophobia ([1]; 1-h, sodium) of 0. For the same compound, the Photophobia ([1]; 1-h, sodium) was 0, the Nausea/vomiting ([1]; 2-h, sodium) was 0 and the Phonophobia ([1]; 2-h, sodium) was 0. It also gave a Photophobia ([1]; 2-h, sodium) of 0, a Nausea/vomiting ([1]; 4-h, sodium) of 0 and a Phonophobia ([1]; 4-h, sodium) of 0. The Photophobia ([1]; 4-h, sodium) was 0, the Nausea/vomiting ([1]; 24-h, sodium) was 0 and the Phonophobia ([1]; 24-h, sodium) was 0. It also gave a Photophobia ([1]; 24-h, sodium) of 0.

Reference: patent publication US7163689B2, “Intravenous valproate for acute treatment of migraine headache” (priority 1999, dated 2007)
